Test results taken from patent US9096532B2, “Pyrazole inhibitors of COX-2 and sEH” (The Regents of the University of California, priority 2010, dated 2015).

Key:
[1] = target: T1, ovine COX-1 (Ovis aries, UniProt P05979); assay: Cyclooxygenase inhibition assay (COX Fluorescent Inhibitor Screening Assay Kit), COX-1; format: biochemical; conditions: read-out: COX-1 (% inhibition)
T1 construct: purchased Cayman Chemical 700100
T1 sequence (P05979 25-600): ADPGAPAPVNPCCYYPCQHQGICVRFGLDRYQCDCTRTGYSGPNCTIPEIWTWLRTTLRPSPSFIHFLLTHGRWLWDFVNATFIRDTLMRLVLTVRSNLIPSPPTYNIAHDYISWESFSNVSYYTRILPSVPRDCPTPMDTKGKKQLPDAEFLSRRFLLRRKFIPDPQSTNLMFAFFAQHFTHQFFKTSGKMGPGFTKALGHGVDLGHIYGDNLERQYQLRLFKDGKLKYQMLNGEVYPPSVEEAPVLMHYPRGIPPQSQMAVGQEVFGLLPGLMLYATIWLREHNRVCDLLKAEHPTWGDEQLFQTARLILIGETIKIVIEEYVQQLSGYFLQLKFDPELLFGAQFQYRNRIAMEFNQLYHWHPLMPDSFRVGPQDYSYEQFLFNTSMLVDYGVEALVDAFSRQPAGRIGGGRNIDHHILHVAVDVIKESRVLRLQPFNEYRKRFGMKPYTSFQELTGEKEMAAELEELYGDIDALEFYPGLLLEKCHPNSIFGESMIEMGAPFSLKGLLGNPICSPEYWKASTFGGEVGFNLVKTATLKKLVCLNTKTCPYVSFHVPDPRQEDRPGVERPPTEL
Description: (§1) Stock solutions of test compounds are dissolved in a minimum volume of DMSO. 10 μl of various concentrations of the test compound solutions, e.g., [I]final between 0.01 and 100 μM, are added to a series of supplied reaction buffer solutions (150 μl, 100 mM Tris-HCl, pH 8.0) with either COX-1 or COX-2 (10 μl) enzyme in the presence of Heme (10 μl) and a fluorometric substrate (10 μl). The reactions are initiated by quickly adding 10 μl of arachidonic acid solution and then incubating the system for two minutes at room temperature. […] The intensity of this fluorescence is proportional to the amount of resorufin, which is proportional to the amount of PGG2 present in the well during the incubation. Percent inhibition is calculated by comparison from the 100% initial activity sample value (no inhibitor).
as §1, with “compounds were” for “compounds are”, “μM, were” for “μM, are”, “reactions were” for “reactions are”, “then incubated” for “then incubating the system”, “inhibition was” for “inhibition is”

[2] = target: T2, human sEH (Homo sapiens, UniProt P34913); assay: sEH IC50 assay, fluorescent-based with CMNPC substrate; format: biochemical; conditions: for IC50: kinetic fluorescent assay, means ± SD of three separate experiments
T2 sequence (P34913 1-555): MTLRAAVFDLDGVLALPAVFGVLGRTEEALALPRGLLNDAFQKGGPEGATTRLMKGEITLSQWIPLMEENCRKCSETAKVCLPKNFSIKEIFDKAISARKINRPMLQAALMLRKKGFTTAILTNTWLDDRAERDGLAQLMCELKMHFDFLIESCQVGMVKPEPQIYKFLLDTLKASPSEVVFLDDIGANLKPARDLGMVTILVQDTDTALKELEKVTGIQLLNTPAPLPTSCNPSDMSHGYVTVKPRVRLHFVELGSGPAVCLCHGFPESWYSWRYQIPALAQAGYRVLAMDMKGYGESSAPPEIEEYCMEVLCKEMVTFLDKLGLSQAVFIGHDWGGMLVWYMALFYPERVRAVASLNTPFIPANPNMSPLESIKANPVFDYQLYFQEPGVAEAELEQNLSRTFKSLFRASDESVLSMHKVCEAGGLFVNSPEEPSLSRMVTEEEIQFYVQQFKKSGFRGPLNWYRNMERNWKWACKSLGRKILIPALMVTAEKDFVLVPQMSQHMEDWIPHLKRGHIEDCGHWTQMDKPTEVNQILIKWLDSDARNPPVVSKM
Description: sEH inhibition IC50 values for the compounds presented herein can be assayed by a recombinant affinity assay using purified sEHs, from human, mouse or rat, in a fluorescent-based assay.
For the recombinant affinity assay, purified sEHs (human, mouse and rat) were used in a fluorescent-based assay to determine IC50 values. […] These IC50 values were calculated from at least three separate runs, each in triplicate, to obtain the statistics herein, e.g., standard deviation.

[3] = target: T3, human recombinant COX-2 (Homo sapiens, UniProt P35354); assay: Cyclooxygenase inhibition assay (COX Fluorescent Inhibitor Screening Assay Kit), COX-2; format: biochemical; conditions: compared to compound 21b
T3 construct: purchased Cayman Chemical 700100
T3 sequence (P35354 18-604): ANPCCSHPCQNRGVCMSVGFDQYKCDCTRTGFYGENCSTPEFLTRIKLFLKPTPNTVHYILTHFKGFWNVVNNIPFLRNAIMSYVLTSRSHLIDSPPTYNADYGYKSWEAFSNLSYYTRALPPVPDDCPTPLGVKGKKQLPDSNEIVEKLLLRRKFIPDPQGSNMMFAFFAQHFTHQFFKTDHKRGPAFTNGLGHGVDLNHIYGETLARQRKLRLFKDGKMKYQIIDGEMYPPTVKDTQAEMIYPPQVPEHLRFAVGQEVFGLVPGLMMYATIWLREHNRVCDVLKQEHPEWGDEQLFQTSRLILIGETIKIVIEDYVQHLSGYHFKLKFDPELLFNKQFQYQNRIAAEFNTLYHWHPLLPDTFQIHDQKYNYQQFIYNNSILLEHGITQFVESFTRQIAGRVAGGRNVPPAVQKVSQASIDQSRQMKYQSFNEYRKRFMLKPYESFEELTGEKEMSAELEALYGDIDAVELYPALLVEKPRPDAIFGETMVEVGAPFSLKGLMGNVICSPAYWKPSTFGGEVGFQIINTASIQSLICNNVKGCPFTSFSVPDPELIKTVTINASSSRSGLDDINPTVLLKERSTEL
Description: as §1
as §1, with “compounds were” for “compounds are”, “μM, were” for “μM, are”, “reactions were” for “reactions are”, “then incubated” for “then incubating the system”, “inhibition was” for “inhibition is”

[4] = Pharmacokinetics in mice by oral cassette dosing; format: in vivo; conditions: oral cassette dosing at 5 mg/kg, blood
Description: All the animal experiments were performed according to protocols approved by the Animal Use and Care Committee of University of California, Davis. […] Each cassette was orally administered to 4 mice at a dose of 5 mg/kg in 120-150 μl of vehicle depending on animal weight. […] The instrument was equipped with a linear ion trap and a Turbo V ion source and was operated in negative ion MRM mode. […] This was maintained for 3 min, then the gradient was returned to 30% solvent B in 2 min. The flow rate was 0.4 mL/min. The injection volume was 10 μL and the samples were kept at 4° C. in the auto sampler.

For NS(=O)(=O)c1ccc(-n2nc(NC(=O)Nc3cccc(C(F)(F)F)c3)cc2-c2ccccc2)cc1 [Compound 7, 4-{5-Phenyl-3-[3-(3-trifluoromethyl-phenyl)-ureido]-pyrazol-1-yl}-benzenesulfonamide], the inhibition at 100 µM [1] was 33.9%.

In the case of CS(=O)(=O)c1ccc(-n2nc(CNC(=O)NC34CC5CC(CC(C5)C3)C4)cc2-c2ccccc2)cc1 [Compound 11a, 1-Adamantan-1-yl-3-[1-(4-methanesulfonyl-phenyl)-5-phenyl-1H-pyrazol-3-ylmethyl]-urea], the inhibition at 100 µM [1] is reported as 12.7%.

For CS(=O)(=O)c1ccc(-n2nc(CNC(=O)NC3CCCCCC3)cc2-c2ccccc2)cc1 [Compound 11b, 1-Cycloheptyl-3-[1-(4-methanesulfonyl-phenyl)-5-phenyl-1H-pyrazol-3-ylmethyl]-urea], the “Improvement of sEH inhibition” value ([2]; compared to compound 11a) was 10 fold and the inhibition at 100 µM [1] was 3.4%.

With CS(=O)(=O)c1ccc(-n2nc(CNC(=O)Nc3ccc(OC(F)(F)F)cc3)cc2-c2ccccc2)cc1 [Compound 11d, 1-[1-(4-Methanesulfonyl-phenyl)-5-phenyl-1H-pyrazol-3-ylmethyl]-3-(4-trifluoromethoxy-phenyl)-urea] the inhibition at 100 µM [1] was 10.4%.

For CS(=O)(=O)c1ccc(-n2nc(CNC(=O)Nc3ccc(C(F)(F)F)cc3)cc2-c2ccccc2)cc1 [Compound 11e, 1-[1-(4-Methanesulfonyl-phenyl)-5-phenyl-1H-pyrazol-3-ylmethyl]-3-(4-trifluoromethyl-phenyl)-urea], the inhibition at 100 µM [1] was 10.7%.

In the case of CS(=O)(=O)c1ccc(-n2nc(CNC(=O)Nc3cccc(C(F)(F)F)c3)cc2-c2ccccc2)cc1 [Compound 11f, 1-[1-(4-Methanesulfonyl-phenyl)-5-phenyl-1H-pyrazol-3-ylmethyl]-3-(3-trifluoromethyl-phenyl)-urea], the inhibition at 100 µM [1] is reported as 7.8%.

In the case of NS(=O)(=O)c1ccc(-n2nc(CNC(=O)Nc3cccc(C(F)(F)F)c3)cc2-c2ccccc2)cc1 [Compound 11g, 4-{5-Phenyl-3-[3-(3-trifluoromethyl-phenyl)-ureidomethyl]-pyrazol-1-yl}-benzenesulfonamide], the inhibition at 100 µM [1] is reported as 16.9%.

Work on CC(C)(C)c1cc(CNC(=O)Nc2cccc(C(F)(F)F)c2)nn1-c1ccc(S(C)(=O)=O)cc1 [Compound 11h, 1-[5-tert-Butyl-1-(4-methanesulfonyl-phenyl)-1H-pyrazol-3-ylmethyl]-3-(3-trifluoromethyl-phenyl)-urea] yielded an inhibition at 100 µM [1] of 2.4%.

For NS(=O)(=O)c1ccc(-n2nc(CCNC(=O)Nc3cccc(C(F)(F)F)c3)cc2-c2ccccc2)cc1 [Compound 15, 4-(5-Phenyl-3-{2-[3-(3-trifluoromethyl-phenyl)-ureido]-ethyl}-pyrazol-1-yl)-benzenesulfonamide], the “Improvement of sEH inhibition” value ([2]; compared to compound 11g) was 3 fold and the inhibition at 100 µM [1] was 22%.

In the case of CS(=O)(=O)c1ccc(-n2nc(CCCNC(=O)Nc3cccc(C(F)(F)F)c3)cc2-c2ccccc2)cc1 [Compound 21a, 1-{3-[1-(4-Methanesulfonyl-phenyl)-5-phenyl-1H-pyrazol-3-yl]-propyl}-3-(3-trifluoromethyl-phenyl)-urea], the inhibition at 100 µM [1] is reported as 6.4%.

With Cc1ccc(-c2cc(CCCNC(=O)Nc3cccc(C(F)(F)F)c3)nn2-c2ccc(S(N)(=O)=O)cc2)cc1 [Compound 21c, 4-(5-p-Tolyl-3-{3-[3-(3-trifluoromethyl-phenyl)-ureido]-propyl}-pyrazol-1-yl)-benzenesulfonamide] the “Diminished sEH inhibition” value ([2]; compared to compound 21b) was 3 fold, the “Diminished COX-2 inhibition” value [3] was 3 fold and the inhibition at 100 µM [1] was 12.1%.

Cc1cccc(C)c1NC(=O)NCCCc1cc(-c2ccccc2)n(-c2ccc(S(N)(=O)=O)cc2)n1 [Compound 21d, 4-(3-{3-[3-(2,6-Dimethyl-phenyl)-ureido]-propyl}-5-phenyl-pyrazol-1-yl)-benzenesulfonamide] gave an IC50 [2] of 1.55 ± 0.07 µM and an inhibition at 100 µM [1] of 6.2%.

In the case of NS(=O)(=O)c1ccc(-n2nc(CCCNC(=O)Nc3ccccc3)cc2-c2ccccc2)cc1 [Compound 21e, 4-{5-Phenyl-3-[3-(3-phenyl-ureido)-propyl]-pyrazol-1-yl}-benzenesulfonamide], the inhibition at 100 µM [1] is reported as 15.8%, the AUC [4] is reported as 0.125 µM·h and the Cmax [4] is reported as 100 nM. The Tmax [4] was 0.5 h and the t1/2 [4] was 3.1 h.

NS(=O)(=O)c1ccc(-n2nc(CCCNC(=O)NC34CC5CC(CC(C5)C3)C4)cc2-c2ccccc2)cc1 [Compound 21f, 4-{3-[3-(3-Adamantan-1-yl-ureido)-propyl]-5-phenyl-pyrazol-1-yl}-benzenesulfonamide] showed an inhibition at 100 µM [1] of 6.7%, an AUC [4] of 0.022 µM·h and a Cmax [4] of 20 nM. The Tmax [4] was 0.5 h and the t1/2 [4] was 1.7 h.

NS(=O)(=O)c1ccc(-n2nc(CCCNC(=O)NC3CCCCCC3)cc2-c2ccccc2)cc1 [Compound 21g, 4-{3-[3-(3-Cycloheptyl-ureido)-propyl]-5-phenyl-pyrazol-1-yl}-benzenesulfonamide] gave an inhibition at 100 µM [1] of 10.2%, an AUC [4] of 0.1 µM·h and a Cmax [4] of 42 nM. It also gave a Tmax [4] of 0.5 h and a t1/2 [4] of 3.5 h.

Work on NS(=O)(=O)c1ccc(-n2nc(CCCNC(=O)Nc3ccc(Cl)cc3)cc2-c2ccccc2)cc1 [Compound 21h, 4-(3-{3-[3-(4-Chloro-phenyl)-ureido]-propyl}-5-phenyl-pyrazol-1-yl)-benzenesulfonamide] yielded an inhibition at 100 µM [1] of 15.2%, an AUC [4] of 0.375 µM·h and a Cmax [4] of 190 nM. For the same compound, the Tmax [4] was 0.8 h and the t1/2 [4] was 2.4 h.

COc1ccc2c(c1)c(CC(=O)O)c(C)n2C(=O)c1ccc(Cl)cc1 [Indomethacin, reference compound] gave an IC50 [2] greater than 10 µM.

With CS(=O)(=O)c1ccc(C2=C(c3ccccc3)C(=O)OC2)cc1 [Rofecoxib, rofecoxib, reference compound] the IC50 [2] was greater than 10 µM and the inhibition at 100 µM [1] was 16.5%.
